From patent US20050031537A1, “Multifunctional COX-2 inhibitors” (priority 2002, published 2005) come the findings set out here.

Assay [1] has as its system PPRE luciferase. Kind of assay: PPRE luciferase activation, transient transfection reporter assay (test (a)). The assay is classed as cell-based, human. Conditions: positive in 184B5, 184B5/HER, HCA7, HCT116, SKBR3 and BT474 cells; 24 h treatment. The source says:
We turn now to criterion (a), that is activation of PPRE luciferase by at least 100%. PPRE-luciferase refers to a DNA construct containing the peroxisome proliferator activated receptor (PPAR) binding element joined to luciferase. Cells are transfected with PPRE-luciferase DNA. Ligands of PPAR induce luciferase activity. The ability of a test compound to stimulate PPRE-luciferase signifies that the test compound activates PPAR-mediated gene transcription. PPRE means peroxisome proliferator response element and the method by which PPRE-luciferase is constructed is described in Schoonjans, K., et al, J. Biol. Chem. 270, No. 33, 19269-19276 (Aug. 18, 1995). Use of PPRE-luciferase in a transient transfection to measure increase in promoter activity is disclosed in Subbaramaiah, K. et al, J. Biol. Chem. 270, No. 15, 12440-12448 (Apr. 13, […]).
For each well, 1.8 μg of PPRE3-tk-luciferase construct plasmid DNA (described in Forman, B. M., et al, Cell 83, 803 (1995)) plus 0.2 μg of pSV-β-galactosidase were introduced into cells using 8 μg of LipofectAMINE as per the manufacturer's instructions (Invitrogen, CA). After 7 h of incubation, the medium was replaced with basal medium. After transfection, cells were treated with test compound for 24 h. Reporter activities which include luciferase and β-galactosidase were measured in cellular extract 24 h later. Six wells were used for each of the conditions. Luciferase activity represents data that have been normalized with β-galactosidase.
The luciferase assay was performed as per the BD Pharmingen assay reagents. The Enhanced Luciferase Assay Kit provides a firefly luciferase substrate formulation (Substrates A and B) and cell lysis buffer intended for use in measuring luciferase expressed by transfected cells. Media from cell culture plates was removed and rinsed twice with phosphate buffered saline. Enough 1X cell lysis buffer was added to cover cells and incubated at room temperature for 15-20 min. Cells were dislodged by scraping and transferred to microcentrifuge tubes. […] 20-100 μl cell extract was placed into an assay cuvette. One automatic injector type luminometer is used for assay. Manually 100 μl of Substrate A was added to the assay cuvette and automatically 100 μl of Substrate B was injected. Measurements were performed using a luminometer, for a measurement time of 10 seconds.
The β-galactosidase assay was performed as follows:
50 μl of cell lysate from above was incubated with 50 μl of o-nitrophenyl-β-D-galactoside (ONPG; 4 mg/mL) in Z buffer, (Na2HPO4.7H2O (0.06M), NaH2PO4.H2O (0.04M), 1M KCl (0.01M), 1M MgSO4 (0.001M), β-mercaptoethanol (BME) (0.05M) pH 7.0). The reaction was stopped after sufficient yellow color has developed. The yellow color developed is measured at A420 […].

The subject of assay [2] is HPV16 oncoproteins E6 and E7. Nature of the assay: Western and Northern blotting for HPV16 oncoproteins E6 and E7 (test (d)). It is filed as cell-based, human papillomavirus. Conditions: positive in CaSki and SiHa cells. On the procedure: We turn now to the criterion (d), that is at least 50% downregulation of expression of HPV16 oncoproteins E6 and E7.
Protein E6 and E7 which are expressed by HPV16 are believed to play a major role in carcinogenesis.
Western blotting and Northern blotting techniques were used to evaluate the expression of HPV E6 and E7 proteins. The cell lines used for the study were CaSKi and SiHa. The cells were treated with the test compound and cell lysate was obtained as described above and subjected to Western blotting analysis. The Western blotting analysis was performed as described above except anti-HPV 16 E7 antibody was used to probe the blot. The antibody was obtained from Santa Cruz Biotechnology, Inc. CA. For Northern blotting, total cellular RNA was isolated from cell monolayers using an RNA isolation kit from QIAGEN Inc. after treatment with the test compound. 10 μg of total cellular RNA per lane were electrophoresed in a formaldehyde-containing 1.2% agarose gel and transferred to nylon-supported membranes. After baking, membranes were prehybridized overnight in a solution containing 50% formamide, 5×sodium chloride-sodium phosphate-EDTA buffer (SSPE), 5×Denhardt's solution, 0.1% SDS and 100 μg/ml single-stranded salmon sperm DNA and then hybridized for 12 h at 42° C. with radiolabeled cDNA probes for human HPV16 E6 or E7 cDNAs and 18S rRNA. E6 and E7 (as described in Woodworth, C. D., Cancer Res. 16, 4397-4402 (2000)) and 18S rRNA probes were labeled with [^32P]-CTP by random priming. After hybridization, membranes were washed twice for 20 min at room temperature in 2×SSPE-0.1% SDS, twice for 20 min in the same solution at 55° C., and twice for 20 min in 0.1×SSPE-0.1% SDS at 55° C. Washed membranes were then subjected to autoradiography.

In assay [3] the test system is cyclin D1. Nature of the assay: Western blotting for expression of cyclin D1 (test (c)). The assay is classed as cell-based, human. Conditions: positive in 184B5, 184B5/HER cells; 24 h; Western blot. Here is the method:
Cyclin D1 is a protein that is important in regulating cell proliferation and is described in Ortega, S., et al, Biochimica et Biophysica Acta 1602, 73-87, (2002), the whole of which is incorporated by reference. […] Effects on expression of cyclin D1 was investigated in 184B5, 184B5/HER, HCA7, HCT116, SKBR3 and BT474 cells. The expression was assessed in cells after treatment with test compound or vehicle using 5×10^4 cells for 24 hours. Western blotting technique was used as follows to assess the expression levels of cyclin D1 in cells treated with the test compound and compared to levels in cells treated with vehicle alone. Cell lysates were prepared by treating cells with lysis buffer as described above. […] The resolved proteins were transferred onto nitrocellulose sheets. The nitrocellulose membrane was then incubated with anti-cyclin D1 antiserum. Secondary antibody to IgG conjugated to horseradish peroxidase was used. The various antisera were purchased from Santa Cruz Biotechnology, Inc., CA. The blots were probed with the Renaissance Western blot detection system according to the manufacturer's instructions (PerkinElmer Life Sciences, Boston, Mass.).

In assay [4] the test system is HER-2/neu. Kind of assay: Western blotting for expression of HER-2/neu (test (b)). The following applies: positive in 184B5/HER, BT474 and SKBR3 cells; 24 h; Western blot. The assay is classed as cell-based, human. The source says: We turn now to the criterion (b), that is at least 50% decrease in level of or 50% downregulation of expression of Class I family of receptors tyrosine kinase. The Class I family of receptors tyrosine kinase is described in Reese, M. D., et al Stem Cells 15, pages 1-8 (1997), the whole of which in incorporated herein by reference. Members of the family include HER-2/neu, HER-3, HER-4 and epidermal growth factor receptor (EGFR) and are single-chain membrane spanning proteins which have significant homology to one another including about 80% amino acid identity in the tyrosine kinase domain.
HER-2/neu (erbB-2) gene product is a 185-kDA transmembrane receptor tyrosine kinase that is described in some detail in said Reese et al publication and overexpression thereof has been associated with tumor growth in several kinds of cancer.
To evaluate the expression of Class I family of receptors tyrosine kinase (EGFR, HER-2/neu), Western blotting can be performed. Antibodies for EGFR and HER-2/neu can be obtained from Santa Cruz Biotechnology, Inc.
Expression of EGFR (performed in 184B5, 184B5/HER, 1483, LNCaP, HeLa and CaSki cells)and HER-2/neu (performed in 184B5/HER, SKBR3 and BT474 cells) was assessed in cells after treatment with test compound for 24 hours. 5×10^6 cells were used for the treatment. Western blotting technique was used to assess the expression levels in cells treated with the test compound compared to vehicle alone. Western blotting was carried out as follows:
Cell lysates were prepared by treating cells with lysis buffer (150 mM NaCl, 100 mM Tris (pH 8.0), 1% Tween 20, 50 mM diethyldithiocarbamate, 1 mM EDTA, 1 mM phenylmethylsulfonyl fluoride, 10 μg/ml aprotinin, 10 μg/ml trypsin inhibitor and 10 μg/ml leupeptin). Lysates were sonicated for 20 s on ice and centrifuged at 10,000×g for 10 min to sediment the particulate material. The protein concentration of the supernatant was measured by the method of Lowry, O. H., et al., J. Biol. Chem. 193, 265-275 (195 1). SDS/PAGE was performed under reducing conditions on 10% polyacrylamide gels as described by Laemmli, U.K., Nature (Lond.) 227, 680-685 (1970). The resolved proteins were transferred onto nitrocellulose sheets as detailed by Towbin, H. et al., Proc. Natl. Acad. Sci. USA 76, 4350-4354 (1979). The nitrocellulose membrane was then incubated with anti-EGFR antiserum or anti-HER-2/neu antiserum. Secondary antibody to IgG conjugated to horseradish peroxidase was used. The various antisera were purchased from Santa Cruz Biotechnology, Inc., CA. The blots were probed with the Renaissance Western blot detection system according to the manufacturer's instructions (PerkinElmer Life Sciences, Boston, Mass.).

Take “1-(p-chlorobenzoyl)-5-methoxy-2-methyl-1H-indole-3-octylacetamide [Indomethacin Analog 6]”: in assay [1], the “Test (a) activation of PPRE luciferase by at least 100%” value is given as “+ (A plus sign in the table indicates a positive result, that is meeting the test for each cell line as indicated above as providing a positive result)”. Moreover, the “Test (d) at least 50% downregulation of expression of HPV16 oncoproteins E6 and E7” value in assay [2] is reported as “+ (A plus sign in the table indicates a positive result, that is meeting the test for each cell line as indicated above as providing a positive result)”.
With `COc1ccc2c(c1)c(CC(=O)NCCc1ccccc1)c(C)n2C(=O)c1ccc(Cl)cc1` [Indomethacin Analog 2, N-(2-phenylethyl)-indomethacin amide], the “Test (a) activation of PPRE luciferase by at least 100%” value in assay [1] is reported as “+ (A plus sign in the table indicates a positive result, that is meeting the test for each cell line as indicated above as providing a positive result)”. The “Test (d) at least 50% downregulation of expression of HPV16 oncoproteins E6 and E7” value in assay [2] is on record as “+ (A plus sign in the table indicates a positive result, that is meeting the test for each cell line as indicated above as providing a positive result)”. Further, the “Test (c) at least 50% downregulation of expression of cyclin D1” value in assay [3] is “+ (A plus sign in the table indicates a positive result, that is meeting the test for each cell line as indicated above as providing a positive result)”. Further, in assay [4], the “Test (b) HER-2/neu: at least 50% decrease in level of or 50% downregulation of expression” value is recorded as “+ (A plus sign in the table indicates a positive result, that is meeting the test for each cell line as indicated above as providing a positive result)”.
